Experimental data published in patent US9549921B2, “Heterocyclic compounds and methods of use thereof for the treatment of hepatitis C” (priority 2014, dated 2017).

Experiments:
[1] = test system: HCV replicon genotype 1a; assay: HCV replicon assay, genotype 1a (cell ELISA for NS3/4A); assay type: cell-based, hepatitis C virus; conditions: Hepatitis C virus, 96 h, read-out: 1a IC50 (nM), HCV genotype 1a replicon cells, 96 hours incubation, NS3/4A ELISA readout, % of DMSO control
Summary of the method: (§1)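 Stable neomycin-resistant replicon cell lines (genotype 1a or 1b) incubated 96 h with compound dilution series without G418. After washing and lysis, replication measured by cell ELISA for replicon-encoded NS3/4A protein; IC50 as % of DMSO control via four-parameter fit.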

[2] = test system: HCV replicon genotype 1b; assay: HCV replicon assay, genotype 1b (cell ELISA for NS3/4A); assay type: cell-based, hepatitis C virus; conditions: Hepatitis C virus, 96 h, read-out: 1b IC50 (nM), HCV genotype 1b replicon cells, 96 hours incubation, NS3/4A ELISA readout, % of DMSO control
Summary of the method: as §1

SMILES: CNC(=O)c1c(-c2ccc(F)cc2)oc2cc(N(C)S(C)(=O)=O)c([C@H]3CCCN(C(=O)c4nn(CC5CC5)c5ccccc45)C3)cc12 [Example 100, 5-[(3R)-1-{[1-(cyclopropylmethyl)-1H-indazol-3-yl]carbonyl}piperidin-3-yl]-2-(4-fluorophenyl)-N-methyl-6-[methyl(methylsulfonyl)amino]-1-benzofuran-3-carboxamide]
- IC50 [1]: 65 nM
- IC50 [2]: 20.4 nM

SMILES: CNC(=O)c1c(-c2ccc(F)cc2)oc2cc(N(C)S(C)(=O)=O)c([C@H]3CCCN(C(=O)c4cn(C)c5ccccc45)C3)cc12 [Example 101, 2-(4-fluorophenyl)-N-methyl-5-{(3R)-1-[(1-methyl-1H-indol-3-yl)carbonyl]piperidin-3-yl}-6-[methyl(methylsulfonyl)amino]-1-benzofuran-3-carboxamide]
- IC50 [1]: 103 nM
- IC50 [2]: 55.9 nM

SMILES: CNC(=O)c1c(-c2ccc(F)cc2)oc2cc(N(C)S(C)(=O)=O)c([C@H]3CCCN(C(=O)c4c[nH]c5cc(F)ccc45)C3)cc12 [Example 102, 5-{(3R)-1-[(6-fluoro-1H-indol-3-yl)carbonyl]piperidin-3-yl}-2-(4-fluorophenyl)-N-methyl-6-[methyl(methylsulfonyl)amino]-1-benzofuran-3-carboxamide]
- IC50 [1]: 345 nM
- IC50 [2]: 295 nM

SMILES: CNC(=O)c1c(-c2ccc(F)cc2)oc2cc(N(C)S(C)(=O)=O)c([C@H]3CCCN(C(=O)c4cn5c(Br)cccc5n4)C3)cc12 [Example 103, 5-{(3R)-1-[(5-bromoimidazo[1,2-a]pyridin-2-yl)carbonyl]piperidin-3-yl}-2-(4-fluorophenyl)-N-methyl-6-[methyl(methylsulfonyl)amino]-1-benzofuran-3-carboxamide]
- IC50 [1]: 212 nM
- IC50 [2]: 110 nM

SMILES: CNC(=O)c1c(-c2ccc(F)cc2)oc2cc(N(C)S(C)(=O)=O)c([C@H]3CCCN(C(=O)c4cn5cc(Cl)cc(N)c5n4)C3)cc12 [Example 104, 5-{(3R)-1-[(8-amino-6-chloroimidazo[1,2-a]pyridin-2-yl)carbonyl]piperidin-3-yl}-2-(4-fluorophenyl)-N-methyl-6-[methyl(methylsulfonyl)amino]-1-benzofuran-3-carboxamide]
- IC50 [1]: 284 nM
- IC50 [2]: 136 nM

SMILES: CNC(=O)c1c(-c2ccc(F)cc2)oc2cc(N(C)S(C)(=O)=O)c([C@H]3CCCN(C(=O)c4ccn5nncc5c4)C3)cc12 [Example 105, 2-(4-fluorophenyl)-N-methyl-6-[methyl(methylsulfonyl)amino]-5-[(3R)-1-([1,2,3]triazolo[1,5-a]pyridin-5-ylcarbonyl)piperidin-3-yl]-1-benzofuran-3-carboxamide]
- IC50 [1]: 347 nM
- IC50 [2]: 219 nM

SMILES: CNC(=O)c1c(-c2ccc(F)cc2)oc2cc(N(C)S(C)(=O)=O)c([C@H]3CCCN(C(=O)c4cc5ccccn5c4)C3)cc12 [Example 106, 2-(4-fluorophenyl)-5-[(3R)-1-(indolizin-2-ylcarbonyl)piperidin-3-yl]-N-methyl-6-[methyl(methylsulfonyl)amino]-1-benzofuran-3-carboxamide]
- IC50 [1]: 123 nM
- IC50 [2]: 51.5 nM

SMILES: CNC(=O)c1c(-c2ccc(F)cc2)oc2cc(N(C)S(C)(=O)=O)c([C@H]3CCCN(C(=O)c4cn5c(Cl)cccc5n4)C3)cc12 [Example 107, 5-{(3R)-1-[(5-chloroimidazo[1,2-a]pyridin-2-yl)carbonyl]piperidin-3-yl}-2-(4-fluorophenyl)-N-methyl-6-[methyl(methylsulfonyl)amino]-1-benzofuran-3-carboxamide]
- IC50 [1]: 389 nM
- IC50 [2]: 116 nM

SMILES: CNC(=O)c1c(-c2ccc(F)cc2)oc2cc(N(C)S(C)(=O)=O)c([C@H]3CCCN(C(=O)C(c4ccccc4)c4ccccc4)C3)cc12 [Example 108, 5-[(3R)-1-(diphenylacetyl)piperidin-3-yl]-2-(4-fluorophenyl)-N-methyl-6-[methyl(methylsulfonyl)amino]-1-benzofuran-3-carboxamide]
- IC50 [1]: 266 nM
- IC50 [2]: 53 nM

SMILES: CNC(=O)c1c(-c2ccc(F)cc2)oc2cc(N(C)S(C)(=O)=O)c([C@@H]3CCCN(S(=O)(=O)Cc4ccncc4)C3)cc12 [Example 109, 2-(4-fluorophenyl)-N-methyl-6-[methyl(methylsulfonyl)amino]-5-{(3S)-1-[(pyridin-4-ylmethyl)sulfonyl]piperidin-3-yl}-1-benzofuran-3-carboxamide]
- IC50 [1]: 104 nM
- IC50 [2]: 26.2 nM

SMILES: CNC(=O)c1c(-c2ccc(F)cc2)oc2cc(N(C)S(C)(=O)=O)c([C@@H]3CCCN(S(=O)(=O)Cc4cccnc4)C3)cc12 [Example 110, 2-(4-fluorophenyl)-N-methyl-6-[methyl(methylsulfonyl)amino]-5-{(3S)-1-[(pyridin-3-ylmethyl)sulfonyl]piperidin-3-yl}-1-benzofuran-3-carboxamide]
- IC50 [1]: 164 nM
- IC50 [2]: 38.4 nM

SMILES: CNC(=O)c1c(-c2ccc(F)cc2)oc2cc(N(C)S(C)(=O)=O)c([C@@H]3CCCN(S(=O)(=O)c4ccccc4C)C3)cc12 [Example 111, 2-(4-fluorophenyl)-N-methyl-6-[methyl(methylsulfonyl)amino]-5-{(3S)-1-[(2-methylphenyl)sulfonyl]piperidin-3-yl}-1-benzofuran-3-carboxamide]
- IC50 [1]: 68.1 nM
- IC50 [2]: 17.2 nM

SMILES: CNC(=O)c1c(-c2ccc(F)cc2)oc2cc(N(C)S(C)(=O)=O)c([C@@H]3CCCN(S(=O)(=O)c4ccc5ncsc5c4)C3)cc12 [Example 112, 5-[(3S)-1-(1,3-benzothiazol-6-ylsulfonyl)piperidin-3-yl]-2-(4-fluorophenyl)-N-methyl-6-[methyl(methylsulfonyl)amino]-1-benzofuran-3-carboxamide]
- IC50 [1]: 25 nM
- IC50 [2]: 6.79 nM

SMILES: CNC(=O)c1c(-c2ccc(F)cc2)oc2cc(N(C)S(C)(=O)=O)c([C@@H]3CCCN(S(=O)(=O)c4ccc(C)cc4)C3)cc12 [Example 113, 2-(4-fluorophenyl)-N-methyl-6-[methyl(methylsulfonyl)amino]-5-{(3S)-1-[(4-methylphenyl)sulfonyl]piperidin-3-yl}-1-benzofuran-3-carboxamide]
- IC50 [1]: 64.6 nM
- IC50 [2]: 21.9 nM

SMILES: CNC(=O)c1c(-c2ccc(F)cc2)oc2cc(N(C)S(C)(=O)=O)c([C@@H]3CCCN(S(=O)(=O)c4cccc(F)c4)C3)cc12 [Example 114, 2-(4-fluorophenyl)-5-{(3S)-1-[(3-fluorophenyl)sulfonyl]piperidin-3-yl}-N-methyl-6-[methyl(methylsulfonyl)amino]-1-benzofuran-3-carboxamide]
- IC50 [1]: 34.2 nM
- IC50 [2]: 8.2 nM

SMILES: CNC(=O)c1c(-c2ccc(F)cc2)oc2cc(N(C)S(C)(=O)=O)c([C@@H]3CCCN(S(=O)(=O)c4ccc(F)cc4)C3)cc12 [Example 115]
- IC50 [1]: 36.6 nM
- IC50 [2]: 8 nM

SMILES: CNC(=O)c1c(-c2ccc(F)cc2)oc2cc(N(C)S(C)(=O)=O)c([C@@H]3CCCN(S(=O)(=O)C4CCCCC4)C3)cc12 [Example 116, 5-[(3S)-1-(cyclohexylsulfonyl)piperidin-3-yl]-2-(4-fluorophenyl)-N-methyl-6-[methyl(methylsulfonyl)amino]-1-benzofuran-3-carboxamide]
- IC50 [1]: 194 nM
- IC50 [2]: 31.7 nM

SMILES: CNC(=O)c1c(-c2ccc(F)cc2)oc2cc(N(C)S(C)(=O)=O)c([C@@H]3CCCN(S(=O)(=O)c4ccccc4)C3)cc12 [Example 117, 2-(4-fluorophenyl)-N-methyl-6-[methyl(methylsulfonyl)amino]-5-[(3S)-1-(phenylsulfonyl)piperidin-3-yl]-1-benzofuran-3-carboxamide]
- IC50 [1]: 32.3 nM
- IC50 [2]: 9.37 nM

SMILES: CNC(=O)c1c(-c2ccc(F)cc2)oc2cc(N(C)S(C)(=O)=O)c([C@@H]3CCCN(S(=O)(=O)c4c(Cl)nc5sccn45)C3)cc12 [Example 118, 5-{(3S)-1-[(6-chloroimidazo[2,1-b][1,3]thiazol-5-yl)sulfonyl]piperidin-3-yl}-2-(4-fluorophenyl)-N-methyl-6-[methyl(methylsulfonyl)amino]-1-benzofuran-3-carboxamide]
- IC50 [1]: 41 nM
- IC50 [2]: 8.36 nM

SMILES: CNC(=O)c1c(-c2ccc(F)cc2)oc2cc(N(C)S(C)(=O)=O)c([C@@H]3CCCN(S(=O)(=O)c4ccccc4F)C3)cc12 [Example 119, 2-(4-fluorophenyl)-5-{(3S)-1-[(2-fluorophenyl)sulfonyl]piperidin-3-yl}-N-methyl-6-[methyl(methylsulfonyl)amino]-1-benzofuran-3-carboxamide]
- IC50 [1]: 24.5 nM
- IC50 [2]: 10.9 nM

SMILES: CNC(=O)c1c(-c2ccc(F)cc2)oc2cc(N(C)S(C)(=O)=O)c([C@@H]3CCCN(S(=O)(=O)c4cccc5nonc45)C3)cc12 [Example 120, 5-[(3S)-1-(2,1,3-benzoxadiazol-4-ylsulfonyl)piperidin-3-yl]-2-(4-fluorophenyl)-N-methyl-6-[methyl(methylsulfonyl)amino]-1-benzofuran-3-carboxamide]
- IC50 [1]: 22.4 nM
- IC50 [2]: 8.37 nM

SMILES: CNC(=O)c1c(-c2ccc(F)cc2)oc2cc(N(C)S(C)(=O)=O)c([C@@H]3CCCN(S(=O)(=O)Cc4ccccc4)C3)cc12 [Example 121, 5-[(3S)-1-(benzylsulfonyl)piperidin-3-yl]-2-(4-fluorophenyl)-N-methyl-6-[methyl(methylsulfonyl)amino]-1-benzofuran-3-carboxamide]
- IC50 [1]: 47.5 nM
- IC50 [2]: 23.8 nM

SMILES: CNC(=O)c1c(-c2ccc(F)cc2)oc2cc(N(C)S(C)(=O)=O)c([C@@H]3CCCN(S(=O)(=O)c4ccc5c(c4)CC(=O)N5)C3)cc12 [Example 122, 2-(4-fluorophenyl)-N-methyl-6-[methyl(methylsulfonyl)amino]-5-{(3S)-1-[(2-oxo-2,3-dihydro-1H-indol-5-yl)sulfonyl]piperidin-3-yl}-1-benzofuran-3-carboxamide]
- IC50 [1]: 78.8 nM
- IC50 [2]: 22.1 nM
